From patent publication US11459315B2, “Modulators of methyl modifying enzymes, compositions and uses thereof” (Constellation Pharmaceuticals, Inc., priority 2017, dated 2022)

Molecular target: PRC2 containing wt EZH2 (Homo sapiens (Human), UniProt Q15910)
Assay: EZH2 biochemical assay (IC50), 3H-SAM incorporation into biotinylated H3 peptide
Conditions: EZH2 (IC50), 30 pM PRC2 containing wt EZH2; 3-5 h pre-incubation
Description: EZH2 biochemical assay (IC50): Compound potencies were assessed through incorporation of ^3H-SAM into a biotinylated H3 peptide. Specifically, 30 pM PRC2 containing wt EZH2 (pentameric complex prepared in-house) was pre-incubated with 450 nM SAM, 450 nM ^3H-SAM, 2 μM H3K27me3 activating peptide (H2N-[…](Kme3)[…]-amide) and compounds (as 10 point duplicate dose response titrations in DMSO, final assay 0.8% DMSO (v/v)) for 3-5 h in 50 mM Tris (pH 8.5), 1 mM DTT, 0.07 mM Brij-35, 0.1% BSA, and 0.8% DMSO in a total volume of 12.5 μl. Reaction was initiated with biotinylated H3 substrate peptide (H2N-[…](Kme1)[…]-NTPEGBiot) as a 2 μM stock in 12.5 μl of buffer and allowed to react at room temperature for 18-22 h. Quenching was accomplished by addition of 20 μl of STOP solution (50 mM Tris (pH 8.5), 200 mM EDTA, 2 mM SAH). 35 μl of the quenched solution was transferred to streptavidin coated FlashPlates (PerkinElmer), incubated 1-2 h, washed, and read in a TopCount Reader (PerkinElmer). IC50s were calculated in Genedata Screener using non-linear least square four parameter fits, where the four parameters were IC50, Hill slope, pre-transitional baseline (0% INH), and post-transitional baseline (100% INH).
IC50 values are reported as follows: “A” indicates an IC50 value of less than 0.5 nM; “B” indicates an IC50 value of 0.5 nM to 5 nM; “C” indicates an IC50 value of greater than 5 nM for each enzyme; and “ND” is not determined.

Chain of PRC2 containing wt EZH2 (Q15910 whole entry): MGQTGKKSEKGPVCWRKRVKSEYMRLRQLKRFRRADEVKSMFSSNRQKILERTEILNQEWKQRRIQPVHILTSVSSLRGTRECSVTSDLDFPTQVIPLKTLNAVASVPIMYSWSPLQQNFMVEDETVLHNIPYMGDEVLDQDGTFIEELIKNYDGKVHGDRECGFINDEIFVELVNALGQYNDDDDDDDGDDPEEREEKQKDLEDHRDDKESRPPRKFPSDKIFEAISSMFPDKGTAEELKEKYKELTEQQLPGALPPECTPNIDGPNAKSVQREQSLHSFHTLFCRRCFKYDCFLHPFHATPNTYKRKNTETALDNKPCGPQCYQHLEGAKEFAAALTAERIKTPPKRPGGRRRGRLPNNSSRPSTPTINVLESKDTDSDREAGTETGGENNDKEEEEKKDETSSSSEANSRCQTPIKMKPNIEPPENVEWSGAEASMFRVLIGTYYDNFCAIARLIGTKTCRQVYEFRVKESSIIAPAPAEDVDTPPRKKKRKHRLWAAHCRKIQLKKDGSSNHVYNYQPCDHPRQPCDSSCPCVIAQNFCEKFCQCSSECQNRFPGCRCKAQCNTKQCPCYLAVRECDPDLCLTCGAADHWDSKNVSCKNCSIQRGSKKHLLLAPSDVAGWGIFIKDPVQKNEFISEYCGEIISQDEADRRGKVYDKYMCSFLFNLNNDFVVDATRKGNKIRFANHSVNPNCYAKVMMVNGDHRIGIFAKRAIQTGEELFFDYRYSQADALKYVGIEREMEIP
Chain of PRC2 containing wt EZH2 (O75530 whole entry partner): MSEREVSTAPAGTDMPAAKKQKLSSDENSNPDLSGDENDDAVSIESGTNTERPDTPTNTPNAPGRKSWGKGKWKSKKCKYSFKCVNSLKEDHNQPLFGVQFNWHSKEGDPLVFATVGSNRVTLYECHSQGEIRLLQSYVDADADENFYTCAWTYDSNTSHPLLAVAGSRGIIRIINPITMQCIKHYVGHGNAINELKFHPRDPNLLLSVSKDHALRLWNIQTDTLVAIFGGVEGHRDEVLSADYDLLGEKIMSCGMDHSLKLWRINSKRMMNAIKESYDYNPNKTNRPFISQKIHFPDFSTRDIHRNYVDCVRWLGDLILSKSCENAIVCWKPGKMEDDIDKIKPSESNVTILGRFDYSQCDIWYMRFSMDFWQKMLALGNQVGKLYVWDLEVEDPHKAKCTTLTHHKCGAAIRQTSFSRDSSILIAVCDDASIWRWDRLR
Chain of PRC2 containing wt EZH2 (Q15022 whole entry partner): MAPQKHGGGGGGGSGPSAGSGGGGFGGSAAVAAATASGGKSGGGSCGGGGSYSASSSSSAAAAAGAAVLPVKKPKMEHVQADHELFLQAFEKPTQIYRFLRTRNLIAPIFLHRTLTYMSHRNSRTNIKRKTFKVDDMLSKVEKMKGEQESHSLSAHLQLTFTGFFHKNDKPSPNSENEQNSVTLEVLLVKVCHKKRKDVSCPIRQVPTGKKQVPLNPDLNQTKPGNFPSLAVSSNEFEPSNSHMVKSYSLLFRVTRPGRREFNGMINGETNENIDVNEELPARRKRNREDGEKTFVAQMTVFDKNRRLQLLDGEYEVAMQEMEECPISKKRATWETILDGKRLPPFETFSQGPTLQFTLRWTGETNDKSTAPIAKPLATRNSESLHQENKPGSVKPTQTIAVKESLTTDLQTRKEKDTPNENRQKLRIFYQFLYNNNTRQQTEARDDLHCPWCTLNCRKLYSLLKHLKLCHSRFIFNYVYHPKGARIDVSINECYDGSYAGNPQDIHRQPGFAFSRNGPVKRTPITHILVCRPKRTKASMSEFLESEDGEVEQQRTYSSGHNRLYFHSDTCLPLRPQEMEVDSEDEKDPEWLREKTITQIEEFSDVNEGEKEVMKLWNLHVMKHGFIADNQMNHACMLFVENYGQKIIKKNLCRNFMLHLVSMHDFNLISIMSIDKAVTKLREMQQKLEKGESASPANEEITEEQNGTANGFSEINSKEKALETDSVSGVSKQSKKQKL
Chain of PRC2 containing wt EZH2 (Q09028 whole entry partner): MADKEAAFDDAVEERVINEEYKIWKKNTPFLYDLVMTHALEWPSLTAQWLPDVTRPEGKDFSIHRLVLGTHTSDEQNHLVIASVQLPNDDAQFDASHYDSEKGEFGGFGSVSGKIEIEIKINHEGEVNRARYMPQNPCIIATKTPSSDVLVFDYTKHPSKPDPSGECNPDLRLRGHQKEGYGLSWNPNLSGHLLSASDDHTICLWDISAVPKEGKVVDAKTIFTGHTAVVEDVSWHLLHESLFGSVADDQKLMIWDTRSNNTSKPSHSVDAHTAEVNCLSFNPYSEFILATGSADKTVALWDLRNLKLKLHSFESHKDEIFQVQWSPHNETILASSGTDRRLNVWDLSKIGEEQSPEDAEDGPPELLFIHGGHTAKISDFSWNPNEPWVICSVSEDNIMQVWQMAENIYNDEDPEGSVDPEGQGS
Chain of PRC2 containing wt EZH2 (Q6ZN18 whole entry partner): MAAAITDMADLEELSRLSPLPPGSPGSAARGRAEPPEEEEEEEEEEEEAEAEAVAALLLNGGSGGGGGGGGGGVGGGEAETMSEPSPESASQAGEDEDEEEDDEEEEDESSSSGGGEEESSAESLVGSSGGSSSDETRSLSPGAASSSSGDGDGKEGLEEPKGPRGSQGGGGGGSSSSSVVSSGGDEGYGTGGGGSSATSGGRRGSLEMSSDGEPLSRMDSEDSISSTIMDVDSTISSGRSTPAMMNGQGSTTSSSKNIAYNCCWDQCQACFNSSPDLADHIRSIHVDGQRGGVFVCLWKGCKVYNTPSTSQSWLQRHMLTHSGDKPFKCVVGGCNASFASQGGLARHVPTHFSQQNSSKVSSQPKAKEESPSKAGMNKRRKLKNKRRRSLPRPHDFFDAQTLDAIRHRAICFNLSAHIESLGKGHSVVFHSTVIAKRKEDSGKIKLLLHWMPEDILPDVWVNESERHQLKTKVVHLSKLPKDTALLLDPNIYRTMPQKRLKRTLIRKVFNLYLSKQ

SMILES	IC50 [nM]
CSc1cc(C)[nH]c(=O)c1CNC(=O)c1c(C)n([C@H](C)C2OCC(N3CCC3(C)C)CO2)c2ccccc12 (single isomer, unassigned) [15 (isomer 1)]	< 0.5
COC1CCC([C@@H](C)n2c(C)c(C(=O)NCc3c(SC)cc(C)[nH]c3=O)c3ccccc32)CC1 (single isomer, unassigned) [18 (isomer 1)]	< 0.5
CSc1cc(C)[nH]c(=O)c1CNC(=O)c1c(C)n([C@H](C)C2CCC(O)CC2)c2ccccc12 (single isomer, unassigned) [19 (isomer 1)]	< 0.5
CSc1cc(C)[nH]c(=O)c1CNC(=O)c1c(C)n([C@H](C)C2CCC(C)(O)CC2)c2ccccc12 (single isomer, unassigned) [22 (isomer 1)]	< 0.5
CSc1cc(C)[nH]c(=O)c1CNC(=O)c1c(C)n([C@H](C)C2CCC(N3CC(F)(F)C3)CC2)c2ccccc12 (single isomer, unassigned) [23 (isomer 1)]	0.5 to 5
CSc1cc(C)[nH]c(=O)c1CNC(=O)c1c(C)n([C@H](C)C2CCC(N3CC(F)(F)C3)CC2)c2ccccc12 (single isomer, unassigned) [23 (isomer 2)]	< 0.5
CSc1cc(C)[nH]c(=O)c1CNC(=O)c1c(C)n([C@H](C)C2CCC(N3CC(F)C3)CC2)c2ccccc12 (single isomer, unassigned) [24 (isomer 1)]	< 0.5
CSc1cc(C)[nH]c(=O)c1CNC(=O)c1c(C)n([C@H](C)C2CCC(O)CC2)c2ncccc12 (single isomer, unassigned) [36 (isomer 1)]	< 0.5
COC1CCC([C@@H](C)n2c(C)c(C(=O)NCc3c(SC)cc(C)[nH]c3=O)c3cncnc32)CC1 (single isomer, unassigned) [41 (isomer 1)]	< 0.5

Same assay, conditions: read-out: EZH2 (IC50); 30 pM PRC2 containing wt EZH2; 3-5 h pre-incubation

SMILES	IC50 [nM]
CSc1cc(C)[nH]c(=O)c1CNC(=O)c1c(C)n([C@H](C)C2OCC(N3CCC3(C)C)CO2)c2ccccc12 (single isomer, unassigned) [15 (isomer 2)]	< 0.5
COC1CCC([C@@H](C)n2c(C)c(C(=O)NCc3c(SC)cc(C)[nH]c3=O)c3ccccc32)CC1 (single isomer, unassigned) [18 (isomer 2)]	< 0.5
CSc1cc(C)[nH]c(=O)c1CNC(=O)c1c(C)n([C@H](C)C2CCC(O)CC2)c2ccccc12 (single isomer, unassigned) [19 (isomer 2)]	< 0.5
CSc1cc(C)[nH]c(=O)c1CNC(=O)c1c(C)n([C@H](C)C2CCC(C)(O)CC2)c2ccccc12 (single isomer, unassigned) [22 (isomer 2)]	< 0.5
CSc1cc(C)[nH]c(=O)c1CNC(=O)c1c(C)n([C@H](C)C2CCC(N3CC(F)C3)CC2)c2ccccc12 (single isomer, unassigned) [24 (isomer 2)]	< 0.5
CSc1cc(C)[nH]c(=O)c1CNC(=O)c1c(C)n([C@H](C)C2CCC(O)CC2)c2ncccc12 (single isomer, unassigned) [36 (isomer 2)]	< 0.5

Test system: H3K27me3 mark in HeLa cells (EZH2)
Assay: H3K27me3 Alpha Hela Assay (AlphaLISA)
Format: cell-based
Conditions: HeLa cells, 72 hrs; read-out: EZH2 Cell H3K27me3 Alpha HeLa (EC50 K27me3)
Description: H3K27me3 Alpha Hela Assay (AlphaLISA). Ten different doses of each test compound (in a series of 3-fold dilutions) were plated in duplicate 384-well tissue culture treated plates (Catalog #6007680; Perkin Elmer, Waltham, Mass.). Hela cells grown in culture were trypsinized and counted using a Countess® cell counter (Catalog #C10281; Life Technologies, Grand Island, N.Y.). Cell were diluted to 67,000 cells per mL in 10% DMEM (Catalog #10569-010 Life Technologies, Grand Island, N.Y.) and 15 μL (1,000 cells) were plated into each well using the Biotek MicroFlo™ Select Dispenser (BioTek Instruments, Inc. Vermont, USA),) of the 384-well plate. Plates were incubated at 37° C./5% CO2 for 72 hrs. One of the duplicate plates was processed for HeLa assay and the other for viability.
5 μL of Cell-Histone Lysis buffer (1×) (Catalog #AL009F1 Perkin Elmer; Waltham, Mass.) per well was added to the plate processed for AlphaLISA and the plate was incubated at RT for 30 minutes on a plate shaker with low speed (Model #4625-Q Thermo Scientific; Waltham, Mass.). Then, 10 μL per well Histone Extraction buffer (catalog #AL009F2; Perkin Elmer; Waltham, Mass.) was added and the plate further incubated at RT for 20 min on plate shaker with low speed. Next, 10 μL of 5× mix of anti-K27me3 acceptor beads plus Biotinylated anti-Histone H3 (C-ter) Antibody (diluted to 3 nM final) (Catalog #AL118 Perkin Elmer; Waltham, Mass.) was added in each well. Dilution of the acceptor beads and anti-Histone H3 was done in 1× Histone Detection buffer (Catalog #AL009F3 Perkin Elmer; Waltham, Mass.) which was produced by diluting the 10× stock provided. The plate was sealed with an aluminum plate sealer and incubated at 23° C. for 60 min. Next, 10 μL 5× solution of Streptavidin Donor beads were added (Catalog #6760002 Perkin Elmer; Waltham, Mass.) (20 μg/mL final in 1× Histone Detection Buffer), =plate was sealed with Aluminum plate sealer and incubated at 23° C. for 30 min. The plates were then read using an EnVision-Alpha Reader (model #2104 Perkin Elmer; Waltham, Mass.).
Data from both assays was analyzed using Genedata (Basel, Switzerland). Data files were imported to Genedata and assay conditions were specified. A unique Analysis ID was created and the data files analysed to measure dose-dependent inhibition of H3K27me3 mark and cell viability respectively. Readout of DMSO wells were used to normalize the data. Resulting curves were fitted using Smart fit application (Genedata; Basel, Switzerland). The data was checked for quality, validated and integrated in excel format using Stardrop (Optibruim, Cambridge, UK).
EC50 values are reported as follows: “A” indicates an EC50 value of less than 10 nM; “B” indicates an EC50 value of 10 nM to 100 nM; “C” indicates an EC50 value of greater than 100 nM; and “ND” is not determined.

SMILES	EC50 [nM]
CSc1cc(C)[nH]c(=O)c1CNC(=O)c1c(C)n([C@H](C)C2OCC(N3CCC3(C)C)CO2)c2ccccc12 (single isomer, unassigned) [15 (isomer 1)]	< 10
CSc1cc(C)[nH]c(=O)c1CNC(=O)c1c(C)n([C@H](C)C2OCC(N3CCC3(C)C)CO2)c2ccccc12 (single isomer, unassigned) [15 (isomer 2)]	> 100
COC1CCC([C@@H](C)n2c(C)c(C(=O)NCc3c(SC)cc(C)[nH]c3=O)c3ccccc32)CC1 (single isomer, unassigned) [18 (isomer 2)]	< 10
CSc1cc(C)[nH]c(=O)c1CNC(=O)c1c(C)n([C@H](C)C2CCC(O)CC2)c2ccccc12 (single isomer, unassigned) [19 (isomer 2)]	< 10
CSc1cc(C)[nH]c(=O)c1CNC(=O)c1c(C)n([C@H](C)C2CCC(C)(O)CC2)c2ccccc12 (single isomer, unassigned) [22 (isomer 2)]	< 10
CSc1cc(C)[nH]c(=O)c1CNC(=O)c1c(C)n([C@H](C)C2CCC(N3CC(F)(F)C3)CC2)c2ccccc12 (single isomer, unassigned) [23 (isomer 2)]	< 10
CSc1cc(C)[nH]c(=O)c1CNC(=O)c1c(C)n([C@H](C)C2CCC(N3CC(F)C3)CC2)c2ccccc12 (single isomer, unassigned) [24 (isomer 2)]	< 10
CSc1cc(C)[nH]c(=O)c1CNC(=O)c1c(C)n([C@H](C)C2CCC(O)CC2)c2ncccc12 (single isomer, unassigned) [36 (isomer 2)]	< 10

Same assay, conditions: Homo sapiens, HeLa, 72 h, HeLa cells, 72 hrs; read-out: EZH2 Cell H3K27me3 Alpha HeLa (EC50 K27me3)

SMILES	EC50 [nM]
COC1CCC([C@@H](C)n2c(C)c(C(=O)NCc3c(SC)cc(C)[nH]c3=O)c3ccccc32)CC1 (single isomer, unassigned) [18 (isomer 1)]	< 10
CSc1cc(C)[nH]c(=O)c1CNC(=O)c1c(C)n([C@H](C)C2CCC(O)CC2)c2ccccc12 (single isomer, unassigned) [19 (isomer 1)]	< 10
CSc1cc(C)[nH]c(=O)c1CNC(=O)c1c(C)n([C@H](C)C2CCC(C)(O)CC2)c2ccccc12 (single isomer, unassigned) [22 (isomer 1)]	< 10
CSc1cc(C)[nH]c(=O)c1CNC(=O)c1c(C)n([C@H](C)C2CCC(N3CC(F)(F)C3)CC2)c2ccccc12 (single isomer, unassigned) [23 (isomer 1)]	10 to 100
CSc1cc(C)[nH]c(=O)c1CNC(=O)c1c(C)n([C@H](C)C2CCC(N3CC(F)C3)CC2)c2ccccc12 (single isomer, unassigned) [24 (isomer 1)]	< 10
CSc1cc(C)[nH]c(=O)c1CNC(=O)c1c(C)n([C@H](C)C2CCC(O)CC2)c2ncccc12 (single isomer, unassigned) [36 (isomer 1)]	10 to 100
COC1CCC([C@@H](C)n2c(C)c(C(=O)NCc3c(SC)cc(C)[nH]c3=O)c3cncnc32)CC1 (single isomer, unassigned) [41 (isomer 1)]	< 10
